In PubChem BioAssay (NCI):
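A five-concentration, 48-hour dose response in 96-well plates underlies each endpoint, interpolated linearly between surrounding concentrations. The concentration for 50% growth inhibition is given as GI50. TGI is the concentration that stops growth completely.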

How the values were obtained:
Experiment in all cases: growth of human tumour cells (NCI), 48 h
[1] = test system: A498 renal
[2] = test system: HOP-62 NSCLC
[3] = test system: HT29 colon
[4] = test system: MOLT-4 leukemia
[5] = test system: NCI-H226 lung
[6] = test system: NCI-H522 lung
[7] = test system: PC-3 prostate
[8] = test system: SK-MEL-5 melanoma
[9] = test system: UACC-62 melanoma
[10] = test system: SR leukemia

`CN(C)C(=O)C(NCCO)c1ccccc1` (centres undefined) gave a TGI [1] greater than 100 µM, a TGI [2] greater than 100 µM and a TGI [3] greater than 100 µM. The TGI [4] was greater than 100 µM, the TGI [5] was greater than 100 µM and the TGI [6] was greater than 100 µM. It also gave a TGI [7] greater than 100 µM, a TGI [8] greater than 100 µM and a TGI [9] greater than 100 µM.

`O=c1/c(=C/c2ccccc2O)sc2nc3ccccc3n12` showed a TGI [1] greater than 100 µM, a TGI [3] greater than 100 µM and a TGI [4] of 43.7 µM. It also gave a TGI [5] greater than 100 µM, a TGI [8] greater than 100 µM and a TGI [10] of 61.3 µM. It also gave a TGI [9] of 80.6 µM.

With `N=C(N)c1ccc(CS(=O)(=O)F)cc1` the GI50 [2] was greater than 100 µM, the TGI [2] was greater than 100 µM and the GI50 [3] was greater than 100 µM. The TGI [3] was greater than 100 µM, the GI50 [4] was greater than 100 µM and the TGI [4] was greater than 100 µM. It also gave a GI50 [5] greater than 100 µM, a TGI [5] greater than 100 µM and a GI50 [6] greater than 100 µM. The TGI [6] was greater than 100 µM, the GI50 [7] was greater than 100 µM and the TGI [7] was greater than 100 µM. It also gave a GI50 [8] greater than 100 µM, a TGI [8] greater than 100 µM and a GI50 [9] greater than 100 µM. The TGI [9] was greater than 100 µM.

In the case of `CN(C)c1ccc(/C=N/NC(=O)CSc2nc3sc4c(c3c(=O)n2-c2ccccc2)CCCCC4)cc1`, the GI50 [2] is reported as 3.21 µM, the TGI [2] is reported as 20.2 µM and the GI50 [3] is reported as 4.31 µM. It also gave a TGI [3] greater than 100 µM, a GI50 [4] greater than 100 µM and a TGI [4] greater than 100 µM. The GI50 [5] was 4.26 µM, the TGI [5] was greater than 100 µM and the GI50 [6] was 3.89 µM. For the same molecule, the TGI [6] was greater than 100 µM, the GI50 [8] was 3.44 µM and the TGI [8] was greater than 100 µM. The GI50 [10] was 3 µM, the TGI [10] was greater than 100 µM and the GI50 [9] was 4.04 µM. The TGI [9] was greater than 100 µM.

`OCC(O)C(O)C(O)c1nn[nH]n1` (centres undefined) showed a TGI [2] greater than 100 µM, a TGI [3] greater than 100 µM and a TGI [4] greater than 100 µM. The TGI [5] was greater than 100 µM, the TGI [6] was greater than 100 µM and the TGI [8] was greater than 100 µM. For the same molecule, the TGI [10] was greater than 100 µM and the TGI [9] was greater than 100 µM.

For `CN1C(=O)C(C)(C)NS1(=O)=O`, the TGI [1] was greater than 100 µM, the TGI [2] was greater than 100 µM and the TGI [3] was greater than 100 µM. The TGI [4] was greater than 100 µM, the TGI [8] was greater than 100 µM and the TGI [9] was greater than 100 µM.

`CCOc1cccc2sc(N)nc12` gave a TGI [1] greater than 100 µM, a TGI [2] greater than 100 µM and a TGI [3] greater than 100 µM. It also gave a TGI [4] greater than 100 µM, a TGI [5] greater than 100 µM and a TGI [6] greater than 100 µM. The TGI [8] was greater than 100 µM and the TGI [9] was greater than 100 µM.

`CCOC(=O)NC(=O)c1cn(CC(=O)NCC(=O)NCC(=O)N2CCN(CCn3c(C)nc(C(N)=O)c3N)CC2)c(=O)[nH]c1=O` gave a TGI [1] greater than 100 µM, a TGI [2] greater than 100 µM and a TGI [3] greater than 100 µM. The TGI [4] was greater than 100 µM, the TGI [8] was greater than 100 µM and the TGI [10] was greater than 100 µM. It also gave a TGI [9] greater than 100 µM.

With `CC1(OCc2ccccc2)C(=O)N2C1N(C(=O)OCc1ccccc1)CC2(C)C` (centres undefined) the TGI [1] was greater than 100 µM, the TGI [2] was greater than 100 µM and the TGI [3] was greater than 100 µM. For the same molecule, the TGI [4] was 77.4 µM, the TGI [5] was greater than 100 µM and the TGI [8] was 33.5 µM. For the same molecule, the TGI [10] was 95 µM and the TGI [9] was greater than 100 µM.

Work on `CN(C(=N)c1ccccc1)c1ccccc1` yielded a TGI [3] greater than 100 µM, a TGI [4] greater than 100 µM and a TGI [5] greater than 100 µM. It also gave a TGI [8] greater than 100 µM and a TGI [9] greater than 100 µM.

In the case of `O=C1C2c3[nH]c4ccccc4c3C3CCC(c4ccccc4)CC3C2C(=O)N1c1ccccc1` (centres undefined), the TGI [3] is reported as greater than 100 µM, the TGI [4] is reported as greater than 100 µM and the TGI [5] is reported as greater than 100 µM. For the same molecule, the TGI [8] was greater than 100 µM, the TGI [10] was greater than 100 µM and the TGI [9] was greater than 100 µM.

`Clc1cc(Cl)cc(C2SCc3nc4ccccc4n32)c1` (centres undefined) was tested, and the TGI [3] was 25.2 µM, the TGI [4] was 57.2 µM and the TGI [5] was 37.3 µM. For the same molecule, the TGI [6] was 39.3 µM, the TGI [8] was 25.7 µM and the TGI [10] was greater than 100 µM. It also gave a TGI [9] greater than 100 µM.

`N#CC1=C(c2ccccc2)NN(Cc2ccccc2)C(c2ccc(Cl)cc2)CC1=O` (centres undefined) was tested, and the TGI [1] was greater than 100 µM, the TGI [3] was 38.7 µM and the TGI [4] was greater than 100 µM. For the same molecule, the TGI [5] was greater than 100 µM, the TGI [6] was 38.5 µM and the TGI [8] was greater than 100 µM. For the same molecule, the TGI [10] was greater than 100 µM.

Molecule `O=C1C[C@@H]2[C@@H](C=CC23CC3)N1O` has a TGI [1] greater than 100 µM, a TGI [2] greater than 100 µM and a TGI [3] greater than 100 µM. For the same molecule, the TGI [4] was greater than 100 µM, the TGI [5] was greater than 100 µM and the TGI [6] was greater than 100 µM. The TGI [8] was greater than 100 µM and the TGI [9] was greater than 100 µM.

Molecule `COc1cccc(-c2cc(=O)c3cc(C)c(C)c(C(=O)O)c3o2)c1` has a TGI [1] greater than 100 µM, a TGI [2] greater than 100 µM and a TGI [3] greater than 100 µM. It also gave a TGI [4] greater than 100 µM, a TGI [6] greater than 100 µM and a TGI [8] greater than 100 µM. For the same molecule, the TGI [9] was greater than 100 µM.

`CC(C)(C)c1cc(O)c2c(c1O)C(=O)CCC2` showed a TGI [1] greater than 100 µM, a TGI [2] of 91.9 µM and a TGI [3] greater than 100 µM. For the same molecule, the TGI [4] was 53.8 µM, the TGI [8] was 39.2 µM and the TGI [9] was 80.5 µM.

Work on `COC(=O)CCC(=O)Nc1cccc(C(F)(F)F)c1` yielded a TGI [1] greater than 100 µM, a TGI [2] greater than 100 µM and a TGI [3] greater than 100 µM. For the same molecule, the TGI [4] was greater than 100 µM, the TGI [6] was greater than 100 µM and the TGI [8] was greater than 100 µM. It also gave a TGI [9] greater than 100 µM.

Molecule `O=S1(=O)OCc2ccccc21` has a TGI [1] greater than 100 µM, a TGI [2] of 42.3 µM and a TGI [3] greater than 100 µM. The TGI [4] was 78.9 µM, the TGI [5] was greater than 100 µM and the TGI [6] was greater than 100 µM. For the same molecule, the TGI [7] was greater than 100 µM, the TGI [8] was greater than 100 µM and the TGI [9] was greater than 100 µM.

`COc1cc(-c2nn(-c3ccc(NC(=O)Nc4ccc(Cl)c(C(F)(F)F)c4)cc3)cc2-c2ccncc2)ccc1Cl` was tested, and the GI50 [1] was 1.41 µM, the TGI [1] was 3.54 µM and the GI50 [2] was 1.9 µM. It also gave a TGI [2] of 3.93 µM, a GI50 [5] of 2.14 µM and a TGI [5] of 7.22 µM. The GI50 [7] was 1.67 µM, the TGI [7] was greater than 100 µM and the GI50 [8] was 1.56 µM. It also gave a TGI [8] of 2.94 µM, a GI50 [9] of 1.77 µM and a TGI [9] of 3.75 µM.
